Measured values reported in paper PMC10135574, “N-Carbamoylputrescine Amidohydrolase of Bacteroides thetaiotaomicron, a Dominant Species of the Human Gut Microbiota” (Biomedicines, 2023).

target: T1, NCPAH-(His)6; N-carbamoylputrescine amidohydrolase (NCPAH) (Bacteroides thetaiotaomicron, UniProt Q8A9E0); assay: HPLC of putrescine formed; format: biochemical; conditions: read-out: % inhibition at 1 mM
T1 construct: gene BT_0875; full-length, C-terminal His6 tag kept (pET23b NdeI/XhoI, plasmid pMSK106), expressed in E. coli BL21(DE3)
T1 sequence (Q8A9E0 1-294): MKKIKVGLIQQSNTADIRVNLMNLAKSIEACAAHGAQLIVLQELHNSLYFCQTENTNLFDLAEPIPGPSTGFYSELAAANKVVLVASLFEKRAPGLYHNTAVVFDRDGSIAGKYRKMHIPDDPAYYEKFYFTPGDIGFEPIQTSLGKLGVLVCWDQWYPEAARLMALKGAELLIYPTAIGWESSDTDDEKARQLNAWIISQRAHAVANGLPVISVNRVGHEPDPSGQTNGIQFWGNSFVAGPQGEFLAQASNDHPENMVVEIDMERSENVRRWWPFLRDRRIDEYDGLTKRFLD

| Compound | inhibition at 1000 µM [%] |
| --- | --- |
| NCCCCN [putrescine] | ~50 |
| N=C(N)NCCCCN [agmatine] | > 80 |
| NCCCCNCCCN [spermidine] | > 80 |
